ChEMBL document CHEMBL3044954, “Insecticide Resistance and Insensitive Acetylcholinesterase in Small Brown Planthopper, Laodelphax striatellus” (J Pestic Sci, 2000)

Experiments:
[1] = molecular target: T1, Carboxylesterase (Laodelphax striatella) (UniProt K4JRP7); assay: Activity of aliesterase in Laodelphax striatella Ibaraki (small brown planthopper) homogenate assessed per 10 min per ug protein after 10 min by van Asperen method; conditions: Laodelphax striatellus
T1 sequence (whole entry): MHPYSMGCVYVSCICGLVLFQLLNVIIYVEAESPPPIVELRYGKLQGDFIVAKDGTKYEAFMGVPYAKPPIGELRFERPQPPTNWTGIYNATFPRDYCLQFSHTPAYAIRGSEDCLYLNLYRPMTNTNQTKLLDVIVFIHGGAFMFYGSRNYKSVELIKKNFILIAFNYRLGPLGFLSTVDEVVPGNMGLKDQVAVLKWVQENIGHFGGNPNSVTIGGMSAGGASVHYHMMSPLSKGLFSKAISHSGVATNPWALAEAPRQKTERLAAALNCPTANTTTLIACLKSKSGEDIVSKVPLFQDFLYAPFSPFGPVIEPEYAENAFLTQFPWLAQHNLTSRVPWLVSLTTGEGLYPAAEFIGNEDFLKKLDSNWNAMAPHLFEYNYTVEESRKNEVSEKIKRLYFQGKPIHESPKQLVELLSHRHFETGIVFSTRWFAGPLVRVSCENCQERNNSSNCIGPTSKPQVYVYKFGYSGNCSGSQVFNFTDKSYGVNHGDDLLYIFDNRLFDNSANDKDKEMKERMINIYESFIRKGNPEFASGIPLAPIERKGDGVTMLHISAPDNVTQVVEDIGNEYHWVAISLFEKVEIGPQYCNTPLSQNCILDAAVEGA

[2] = molecular target: T1, Carboxylesterase (Laodelphax striatella); assay: Ratio of activity of aliesterase in Laodelphax striatella Kumamoto (small brown planthopper) homogenate to activity of aliesterase in susceptible Laodelphax striatella homogenate; conditions: Laodelphax striatellus
[3] = molecular target: T1, Carboxylesterase (Laodelphax striatella); assay: Activity of aliesterase in susceptible Laodelphax striatella (small brown planthopper) homogenate assessed per 10 min per ug protein after 10 min by van Asperen method; conditions: Laodelphax striatellus
[4] = molecular target: T1, Carboxylesterase (Laodelphax striatella); assay: Activity of aliesterase in Laodelphax striatella Kumamoto (small brown planthopper) homogenate assessed per 10 min per ug protein after 10 min by van Asperen method; conditions: Laodelphax striatellus
[5] = molecular target: T1, Carboxylesterase (Laodelphax striatella); assay: Ratio of activity of aliesterase in Laodelphax striatella Ibaraki (small brown planthopper) homogenate to activity of aliesterase in susceptible Laodelphax striatella homogenate; conditions: Laodelphax striatellus
Acetylcholinesterase [6] = molecular target: T2, Acetylcholinesterase (Laodelphax striatella, UniProt K4JQ36); assay: Inhibition of acetylcholinesterase in Laodelphax striatella Kumamoto (small brown planthopper) homogenate preincubated for 10 min before substrate addition measured after 10 min by Ellman method; set-up: species or system Laodelphax striatellus; conditions: read-out: I50
Acetylcholinesterase [7] = molecular target: T2, Acetylcholinesterase; assay: Inhibition of acetylcholinesterase in susceptible Laodelphax striatella (small brown planthopper) homogenate preincubated for 10 min before substrate addition measured after 10 min by Ellman method; set-up: species or system Laodelphax striatellus; conditions: read-out: I50
Acetylcholinesterase [8] = molecular target: T2, Acetylcholinesterase; assay: Inhibition of acetylcholinesterase in Laodelphax striatella Ibaraki (small brown planthopper) homogenate preincubated for 10 min before substrate addition measured after 10 min by Ellman method; set-up: species or system Laodelphax striatellus; conditions: read-out: I50
Laodelphax striatellus [9] = assay: Insecticidal activity against Laodelphax striatella Kumamoto (small brown planthopper) assessed as mortality compound treated topically on dorsal side; conditions: topical
Laodelphax striatellus [10] = assay: Ratio of LD50 for Laodelphax striatella Ibaraki (small brown planthopper) to LD50 for susceptible Laodelphax striatella; assay type: functional
Laodelphax striatellus [11] = assay: Insecticidal activity against Laodelphax striatella Ibaraki (small brown planthopper) assessed as mortality compound treated topically on dorsal side; conditions: topical
Laodelphax striatellus [12] = assay: Ratio of LD50 for Laodelphax striatella Kumamoto (small brown planthopper) to LD50 for susceptible Laodelphax striatella; assay type: functional
Laodelphax striatellus [13] = assay: Insecticidal activity against susceptible Laodelphax striatella (small brown planthopper) assessed as mortality compound treated topically on dorsal side; assay type: functional; conditions: topical
[14] = molecular target: Acetylcholinesterase (Laodelphax striatella) (UniProt K4JQ36); assay: Ratio of I50 of acetylcholinesterase in Laodelphax striatella Kumamoto (small brown planthopper) homogenate to I50 for acetylcholinesterase in susceptible Laodelphax striatella homogenate; conditions: Laodelphax striatellus
[15] = molecular target: Acetylcholinesterase (Laodelphax striatella) (UniProt K4JQ36); assay: Ratio of I50 of acetylcholinesterase in Laodelphax striatella Ibaraki (small brown planthopper) homogenate to I50 for acetylcholinesterase in susceptible Laodelphax striatella homogenate; conditions: Laodelphax striatellus

Sequence of Acetylcholinesterase (Laodelphax striatella) (K4JQ36 1-426): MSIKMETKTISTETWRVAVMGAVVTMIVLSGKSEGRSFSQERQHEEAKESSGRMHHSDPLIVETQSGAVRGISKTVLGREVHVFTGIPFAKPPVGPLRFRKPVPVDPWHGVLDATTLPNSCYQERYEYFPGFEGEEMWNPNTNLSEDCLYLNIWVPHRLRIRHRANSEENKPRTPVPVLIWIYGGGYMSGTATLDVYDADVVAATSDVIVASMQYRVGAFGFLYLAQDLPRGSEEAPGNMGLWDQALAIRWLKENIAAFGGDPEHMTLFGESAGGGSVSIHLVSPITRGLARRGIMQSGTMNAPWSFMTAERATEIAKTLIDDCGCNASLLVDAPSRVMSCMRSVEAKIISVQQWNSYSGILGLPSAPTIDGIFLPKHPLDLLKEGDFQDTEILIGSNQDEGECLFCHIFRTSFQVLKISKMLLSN
T2 sequence (K4JQ36 whole entry): as the sequence (K4JQ36 1-426) above

SMILES	IC50 (Acetylcholinesterase [6]) [nM]	IC50 (Acetylcholinesterase [7]) [nM]	IC50 (Acetylcholinesterase [8]) [nM]	LD50 (Laodelphax striatellus [9]) [mg/kg]	Ratio (Laodelphax striatellus [10])	LD50 (Laodelphax striatellus [11]) [mg/kg]	Ratio (Laodelphax striatellus [12])	LD50 (Laodelphax striatellus [13]) [mg/kg]	also measured
CC(=O)Oc1cccc2ccccc12									Activity [1]: 27 nmol; Ratio [2]: 4.3; Activity [3]: 6.6 nmol; Activity [4]: 29 nmol; Ratio [5]: 4.1
CNC(=O)Oc1cccc2ccccc12 [CARBARIL]	310	48	48						
CNC(=O)Oc1cccc2c1OC(C)(C)C2 [CARBOFURAN]				20	3.3	1.7	39	0.51	
CCCCN(CCCC)SN(C)C(=O)Oc1cccc2c1OC(C)(C)C2 [CARBOSULFAN]				42			19	2.2	
CCOP(=O)(OCC)Oc1cc(C)nc(C(C)C)n1 [DIAZOXON]	400	170	190						Ratio [14]: 2.4; Ratio [15]: 1.1
CCOP(=S)(OCC)Oc1cc(C)nc(C(C)C)n1 [DIMPYLATE]				74	3.3	28	8.7	8.5	
CCOc1ccc(C(C)(C)COCc2cccc(Oc3ccccc3)c2)cc1 [ETOFENPROX]				2.7	1.1	1.7	1.7	1.6	
COP(=S)(OC)Oc1ccc([N+](=O)[O-])c(C)c1 [FENITROTHION]				38	4.2	27	5.9	6.4	
COP(=O)(OC)Oc1ccc([N+](=O)[O-])c(C)c1 [FENITROXON]	730	350	360						Ratio [14]: 2.1; Ratio [15]: 1
CCC(C)c1ccccc1OC(=O)NC (centres undefined) [FENOBUCARB]	140	29	26	320	1.8	33	18	18	Ratio [14]: 4.8; Ratio [15]: 0.9
CC(C)C(C(=O)OC(C#N)c1cccc(Oc2ccccc2)c1)c1ccc(Cl)cc1 (centres undefined) [FENVALERATE]					1.4	1.9		1.4	
O=[N+]([O-])/N=C1\NCCN1Cc1ccc(Cl)nc1 [IMIDACLOPRID]				0.61	1	0.26	2.3	0.26	
CCOC(=O)CC(SP(=S)(OC)OC)C(=O)OCC (centres undefined) [MALATHION]				380	5.9	130	17	22	
